Measured values: the Kinase Knowledgebase extract (Sharma et al. 2016)

These molecules were tested against EGFR (murine) (UniProt P00533). Conditions: nih3t3/c7.
Chain of EGFR (murine) (P00533 whole entry, looked up): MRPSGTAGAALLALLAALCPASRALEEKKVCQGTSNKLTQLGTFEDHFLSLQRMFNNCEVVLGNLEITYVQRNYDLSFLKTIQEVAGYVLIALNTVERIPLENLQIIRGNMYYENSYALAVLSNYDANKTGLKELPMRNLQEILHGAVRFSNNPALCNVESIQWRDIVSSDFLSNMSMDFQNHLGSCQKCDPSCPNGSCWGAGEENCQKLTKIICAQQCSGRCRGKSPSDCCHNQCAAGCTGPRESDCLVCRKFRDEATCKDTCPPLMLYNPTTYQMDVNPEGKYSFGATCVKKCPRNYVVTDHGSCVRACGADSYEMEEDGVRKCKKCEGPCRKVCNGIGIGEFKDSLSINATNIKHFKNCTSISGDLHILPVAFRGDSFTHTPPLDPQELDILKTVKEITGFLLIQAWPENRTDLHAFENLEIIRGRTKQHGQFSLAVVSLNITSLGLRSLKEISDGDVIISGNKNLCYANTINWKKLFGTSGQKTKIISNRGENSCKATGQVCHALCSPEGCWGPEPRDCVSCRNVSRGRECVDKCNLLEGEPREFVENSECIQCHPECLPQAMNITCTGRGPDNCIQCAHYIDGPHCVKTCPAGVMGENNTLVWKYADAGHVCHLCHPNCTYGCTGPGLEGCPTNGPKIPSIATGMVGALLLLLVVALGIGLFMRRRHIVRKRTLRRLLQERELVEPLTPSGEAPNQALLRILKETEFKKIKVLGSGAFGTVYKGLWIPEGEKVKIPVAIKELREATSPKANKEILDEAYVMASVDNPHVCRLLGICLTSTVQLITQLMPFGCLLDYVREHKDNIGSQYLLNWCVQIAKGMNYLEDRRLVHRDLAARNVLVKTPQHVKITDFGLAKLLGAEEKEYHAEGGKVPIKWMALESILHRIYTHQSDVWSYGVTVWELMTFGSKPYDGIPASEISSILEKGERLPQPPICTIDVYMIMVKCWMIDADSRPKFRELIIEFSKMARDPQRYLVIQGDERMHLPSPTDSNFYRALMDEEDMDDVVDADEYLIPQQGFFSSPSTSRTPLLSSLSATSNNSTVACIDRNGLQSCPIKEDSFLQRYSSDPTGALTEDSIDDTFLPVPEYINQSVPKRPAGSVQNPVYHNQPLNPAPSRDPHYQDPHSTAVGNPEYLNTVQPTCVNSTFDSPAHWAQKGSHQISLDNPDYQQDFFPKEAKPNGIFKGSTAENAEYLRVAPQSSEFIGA

`O=C1Nc2ccccc2/C1=C1\CCc2ccccc21` and `COc1ccc2c(c1)C(CC(=O)O)C/C2=C1/C(=O)Nc2ccccc21` (centres undefined) cannot be ordered by IC50: > 100 µM for the first, > 100 µM for the second.

The molecules below were run against EGFR (UniProt P00533). Conditions: not given.
Chain of EGFR (P00533 whole entry, looked up): as above

`COc1ccc2c(c1)/C(=C1\C(=O)Nc3ccccc31)CC2` and `COc1ccc2c(c1)CC/C2=C1/C(=O)Nc2ccccc21` cannot be ordered by IC50: > 100 µM for the first, > 100 µM for the second.

`CN(C)c1ccc2c(c1)CC/C2=C1/C(=O)Nc2ccccc21` and `O=C1Nc2ccccc2/C1=C1\CCc2cc(Br)ccc21` cannot be ordered by IC50: > 100 µM for the first, > 100 µM for the second.

`CC1C/C(=C2/C(=O)Nc3ccccc32)c2ccccc21` (centres undefined) and `O=C1Nc2ccccc2/C1=C1\CCc2ccccc21` cannot be ordered by IC50: > 100 µM for the first, > 100 µM for the second.

`Nc1ccc2c(c1)CC/C2=C1/C(=O)Nc2ccccc21` and `O=C1Nc2ccccc2/C1=C1\CCc2cc(Cl)ccc21` cannot be ordered by IC50: > 100 µM for the first, > 100 µM for the second.

`O=C1Nc2ccccc2/C1=C1\CCc2cc(N3CCCCC3)ccc21` and `Cc1cccc2c1CC/C2=C1/C(=O)Nc2ccccc21` cannot be ordered by IC50: > 100 µM for the first, > 100 µM for the second.

`COc1cc2c(cc1OC)/C(=C1\C(=O)Nc3ccccc31)CC2` and `COc1ccc2c(c1)C(CC(=O)O)C/C2=C1/C(=O)Nc2ccccc21` (centres undefined) cannot be ordered by IC50: > 25 µM for the first, > 100 µM for the second.
